Data as given in paper PMC8904520, “Characterization of a small-molecule inhibitor targeting NEMO/IKKβ to suppress colorectal cancer growth” (Signal Transduction and Targeted Therapy, 2022).
Where “and” joins values, the source holds several entries; their conditions need not be identical. Equal values may be shown once. Read-outs that look alike come from different tables or passages of the source.

Legend:
[1] = target: T1, NEMO/IKKβ complex (MBP-IKKβ (701–745) / GST-NEMO (1–196)) (Homo sapiens, UniProt Q9Y6K9); experiment: SPR competition assay of NEMO/IKKβ binding
T1 construct: made in house; host or cells: E. coli BL21(DE3)
T1 sequence (Q9Y6K9 1-196, one chain of several): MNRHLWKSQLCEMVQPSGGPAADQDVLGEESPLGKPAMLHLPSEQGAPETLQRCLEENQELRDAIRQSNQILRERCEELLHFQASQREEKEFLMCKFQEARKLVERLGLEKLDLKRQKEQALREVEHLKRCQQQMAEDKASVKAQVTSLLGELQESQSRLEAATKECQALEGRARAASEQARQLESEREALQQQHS
Experimental: MBP-IKKβ was immobilized on the surface of the CM5 chip using the amine-coupling approach at a flow rate of 10 μL/min in 10 mM sodium acetate buffer (pH 5.0). The sensor surface was activated with a 7 min injection of a mixture comprising 50 mM N-hydroxysuccinimide (NHS) and 200 mM 1-ethyl-3-(3- dimethylaminopropyl) carbodiimide (EDC). Then, 33 μg/mL of IKKβ was injected to reach the target level of 500 RU and the surface was blocked with 1 M ethanolamine, pH 8.5. A series of concentrations of NEMO or SHK were injected into the flow system and analyzed for 90 or 120 s, followed by dissociation for 90 or 600 s. All binding analyses was performed in phosphate-buffered saline (PBS, pH 7.4) with 0.05% (v/v) Tween-20 at 25 °C. Prior to analysis, double reference subtractions were made to eliminate bulk refractive index changes, injection noise, and data drift. The binding affinity was determined by fitting to a Langmuir 1:1 binding model in the Biacore Evaluation software (GE Healthcare).
According to the instructions from GE, an anti-GST antibody was immobilized onto the CM5 chip surface. The sensor surface was activated with NHS and EDC, after which 15 μg/mL of anti-GST antibody was injected for 420 s and the surface was blocked with 1 M ethanolamine, pH 8.5. […] For each analyte, 50 μg/mL of GST-G was captured for 60 s and 10 mM glycine-HCl (pH 2.1) was used to regenerate the surface. MBP-B was analyzed with 120 s injection and 120 s dissociation. A series of SHK concentrations was analyzed with 90 s injection and 90 s dissociation.
For the competition assay, we tried two methods with MBP-IKKβ and GST-NEMO immobilized separately. Mixtures including series concentrations of SHK and 1 μM GST-NEMO were tested on MBP-IKKβ-immobilized surface; while other mixtures including series concentrations of SHK and 0.5 μM MBP-IKKβ were tested on GST-NEMO-captured surface. […] By recording the binding responses at 120 s, the inhibition effects of SHK were calculated to determine the IC50.

MBP-IKKβ (701–745) = target: T2, MBP-IKKβ (701–745) (Homo sapiens, UniProt O14920); experiment: MST binding assay to IKKβ
T2 construct: made in house; host or cells: E. coli BL21(DE3)
T2 sequence (O14920 701-745): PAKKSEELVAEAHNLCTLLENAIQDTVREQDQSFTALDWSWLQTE

[2] = target: T3, NEMO/IKKβ interaction (GST-NEMO1–196 / biotinylated IKKβ peptide) (Homo sapiens, UniProt Q9Y6K9); experiment: FRET assay of NEMO/IKKβ binding; conditions: 10 nM GST-NEMO1–196, 200 nM biotinylated IKKβ peptide, read-out: IC50 for impairing NEMO/IKKβ interaction
T3 construct: made in house; host or cells: E. coli BL21(DE3) (GST-NEMO)
T3 sequence (Q9Y6K9 1-196): as the sequence (Q9Y6K9 1-196, one chain of several) above
Experimental: A FRET assay was used to detect the effects of SHK on NEMO/IKKβ binding. 10 nM GST-NEMO1–196 was bound to 200 nM biotinylated IKKβ peptide in binding buffer (50 Mm Tris-HCl, 150 mM NaCl, and 1x cocktail, pH 7.4), and increasing amounts of SHK were titrated into the mixture, incubated for 30 min at room temperature. The detection agent (50 nM streptavidin-conjugated APC and 10 nM LANCE^TM Europium-W1024 labeled anti-GST, Perkin Elmer) was incubated for 30 min at room temperature, and the FRET signal was read on a multifunctional microplate reader (BioTek Synergy NEO).

LoVo and RKO cells = experiment: Colony formation assay; format: cell-based, human
Experimental: Detached cells (1 × 10^3 per well) were seeded into six-well plates containing 2 mL of growth medium with 10% FBS and cultured for 24 h. Then, the medium was removed and the cells were treated with various concentrations of SHK. After 24 h, the cells were washed with PBS and supplemented with fresh growth medium. The cells were routinely incubated for about two weeks until colonies were large enough to be visualized. Then, the colonies were stained with 0.1% crystal violet and counted.

IKKβ = target: T4, IKKβ (Homo sapiens, UniProt O14920); experiment: IKKβ kinase activity in LoVo cells (spectrophotometric kit); format: cell-based
T4 construct: endogenous in cells; host or cells: LoVo cells
T4 sequence (Q9Y6K9 whole entry partner): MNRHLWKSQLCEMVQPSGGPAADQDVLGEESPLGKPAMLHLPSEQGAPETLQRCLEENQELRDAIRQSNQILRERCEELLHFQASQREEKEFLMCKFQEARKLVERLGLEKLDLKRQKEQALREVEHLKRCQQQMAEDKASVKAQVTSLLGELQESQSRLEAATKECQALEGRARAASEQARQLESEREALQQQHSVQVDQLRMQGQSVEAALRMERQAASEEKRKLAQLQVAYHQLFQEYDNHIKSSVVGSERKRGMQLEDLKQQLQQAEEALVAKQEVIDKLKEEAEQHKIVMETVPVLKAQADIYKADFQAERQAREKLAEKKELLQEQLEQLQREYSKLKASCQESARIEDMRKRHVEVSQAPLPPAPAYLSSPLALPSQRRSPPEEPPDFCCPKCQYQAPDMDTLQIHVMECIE
T4 sequence (O14920 whole entry): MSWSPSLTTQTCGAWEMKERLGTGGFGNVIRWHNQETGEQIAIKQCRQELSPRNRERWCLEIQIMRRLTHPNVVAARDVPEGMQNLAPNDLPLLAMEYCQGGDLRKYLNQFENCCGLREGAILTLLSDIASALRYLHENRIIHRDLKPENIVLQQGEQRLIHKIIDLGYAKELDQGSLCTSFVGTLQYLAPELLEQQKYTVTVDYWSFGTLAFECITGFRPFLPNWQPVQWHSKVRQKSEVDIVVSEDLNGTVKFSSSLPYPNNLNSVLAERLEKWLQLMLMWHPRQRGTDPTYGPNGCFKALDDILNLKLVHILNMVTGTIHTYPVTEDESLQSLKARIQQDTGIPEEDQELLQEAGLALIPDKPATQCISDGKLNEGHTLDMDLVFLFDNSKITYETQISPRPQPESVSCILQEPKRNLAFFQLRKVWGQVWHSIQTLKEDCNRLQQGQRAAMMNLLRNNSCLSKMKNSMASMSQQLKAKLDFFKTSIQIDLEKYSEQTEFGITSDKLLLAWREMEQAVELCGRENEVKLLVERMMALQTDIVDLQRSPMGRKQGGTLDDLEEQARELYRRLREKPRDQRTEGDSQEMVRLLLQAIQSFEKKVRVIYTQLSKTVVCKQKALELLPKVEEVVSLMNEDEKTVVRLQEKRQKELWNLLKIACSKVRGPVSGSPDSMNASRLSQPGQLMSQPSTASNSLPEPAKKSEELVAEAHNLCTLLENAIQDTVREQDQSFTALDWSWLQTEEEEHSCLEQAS
Experimental: Fig. 3 Effect of SHK on NEMO/IKKβ/NF-κB signaling. a The protein levels of NEMO, p-IKKβ/IKKβ, and p-IκBα/IκBα in LoVo cells treated with the indicated doses of SHK were analyzed by western blotting. b The protein levels of NEMO, p-IKKβ/IKKβ, p-IκBα/IκBα protein in tumor tissues were analyzed by western blotting. c LoVo cells were co-transfected with pNFκB-luc containing a Renilla luciferase reporter (as internal control) for 24 h and then treated with SHK for 48 h. Luciferase activity was determined using a dual-luciferase reporter assay system. d The IKKβ kinase activity was assessed using a spectrophotometric quantitative detection kit in LoVo cells. The relative activity was calculated using the provided formula. e The subcellular localizations of p50/p65 in LoVo cells following 48 h of treatment with SHK was examined by confocal microscopy analysis. The protein levels of p65 and p50 in nucleus (f) and whole-cell lysates (g) were measured by western blot analysis. Lamin B1 and β-actin were used as controls for sample loading. h The binding of p65 and p50 to a COX-2 promoter probe was analyzed using a streptavidin-agarose pull-down assay. The data are presented as the means ± SD of at least three separate experiments. (*p < 0.05, **p < 0.01, SHK treatment group vs. vehicle control group)

[3] = test system: NF-κB luciferase activity in LoVo cells; experiment: NF-κB dual-luciferase reporter assay; format: cell-based, human; conditions: 0.5 and 1 µM, 48 h
Experimental: LoVo cells in a 6-well plate were transfected with the pNFκB-luc plasmid (Beyotime), which contains the luciferase coding region downstream of an NFκB-responsive promoter, using Lipofectamine 2000 Reagent (Invitrogen, Grand Island, NY, USA). After transfection, the cells were treated with SHK (0.5 and 1µM) for 48 h. The dual-luciferase reporter assay system (Promega, Madison, WI) was used to measure the changes of luciferase activity in the cell lysates. The firefly luciferase activities were normalized to the corresponding Renilla luciferase activities. All values are shown as means ± SD of triplicate experiments.

`CC(C)=CC[C@@H](O)C1=CC(=O)c2c(O)ccc(O)c2C1=O` [SHK, Shikonin] was tested, and the IC50 ([1]; IC50 for impairing binding of GST-NEMO (1–196) to MBP-IKKβ (701–745), MBP-IKKβ immobilized, SHK pre-incubated with 1 μM GST-NEMO for 30 min) was 176 ± 26.4 nM, the IC50 ([1]; IC50 for inhibiting binding of MBP-IKKβ (701–745) to GST-NEMO (1–196), GST-NEMO immobilized, SHK pre-incubated with 0.5 μM MBP-IKKβ for 30 min) was 171 ± 35.6 nM and the IC50 ([1]; summary value as quoted in abstract, introduction, discussion, read-out: IC50 for destabilizing / inhibiting NEMO/IKKβ complex formation) was 174 nM and ~170 nM. For the same molecule, the Kd (MBP-IKKβ (701–745)) was 15200 ± 4000 nM, the IC50 [2] was 231 ± 9.39 nM and the colony formation (LoVo and RKO cells) was “colony formation suppression”. For the same molecule, the “phosphorylation and kinase activity of IKKβ” value (IKKβ) was “suppressed the phosphorylation and kinase activity of IKKβ in a dose-dependent manner” and the NF-κB luciferase activity [3] was “significant inhibition”.
